Assay results as given in ChEMBL document CHEMBL3352739, “Comparative in vivo evaluation of polyalkoxy substituted 4H-chromenes and oxa-podophyllotoxins as microtubule destabilizing agents in the phenotypic sea urchin embryo assay” (2014).

Columns and labels:
[1] = test system: Paracentrotus lividus; experiment: Antimitotic microtubule destabilizing activity in Paracentrotus lividus L embryos assessed as induction of embryo spinning
[2] = test system: Paracentrotus lividus; experiment: Antimitotic microtubule destabilizing activity in Paracentrotus lividus L embryos assessed as induction of cleavage arrest
[3] = test system: Paracentrotus lividus; experiment: Antimitotic microtubule destabilizing activity in Paracentrotus lividus L embryos assessed as induction of cleavage alteration
[4] = Cytotoxicity against human NCI60 cells; assay type: functional
[5] = Cytotoxicity against human NCI60 cells assessed as mean cell growth at 10 uM; assay type: functional

SMILES	EC [1]	EC [2]	EC [3]	GI50 [4]	Activity [5]
COc1cc(C2C(C#N)=C(N)Oc3cc(O)ccc32)cc2c1OCCO2 (centres undefined)	> 5 µM	4 µM	1 µM		
N#CC1=C(N)Oc2cc(O)ccc2C1c1ccccc1 (centres undefined)	> 5 µM	2 µM	0.5 µM		
COc1ccc(C2C(C#N)=C(N)Oc3cc(O)ccc32)c(OC)c1OC (centres undefined)	> 4 µM	> 4 µM	> 4 µM		
COc1cc(C2C(C#N)=C(N)Oc3cc(O)ccc32)cc2c1OCO2 (centres undefined)	10 µM	4 µM	0.5 µM		
COc1ccc2c(c1)OC(N)=C(C#N)C2c1ccc(OC)c(OC)c1 (centres undefined)	1 µM	0.2 µM	0.05 µM		
COc1ccc2c(c1)OC(N)=C(C#N)C2c1cc(OC)c2c(c1)OCO2 (centres undefined)	0.05 µM	0.02 µM	0.005 µM		
COc1cc([C@@H]2c3cc4c(cc3[C@H](O)[C@H]3COC(=O)[C@H]23)OCO4)cc(OC)c1OC [PODOFILOX]	0.5 µM	0.05 µM	0.02 µM	21 nM	
COc1cccc(C2C(C#N)=C(N)Oc3cc(O)ccc32)c1 (centres undefined)	> 5 µM	2 µM	0.1 µM		
COc1ccc2c(c1)OC(N)=C(C#N)C2c1cc(OC)c2c(c1)OCCO2 (centres undefined)	0.1 µM	0.02 µM	0.005 µM		
N#CC1=C(N)Oc2cc(O)ccc2C1c1ccccc1F (centres undefined)	> 5 µM	4 µM	1 µM		
COc1ccc2c(c1)OC(N)=C(C#N)C2c1cccc(OC)c1OC (centres undefined)	4 µM	2 µM	0.2 µM		
COc1ccc(C2C(C#N)=C(N)Oc3cc(OC)ccc32)c(OC)c1 (centres undefined)	4 µM	1 µM	0.1 µM		
N#CC1=C(N)Oc2cc(O)ccc2C1c1ccccc1I (centres undefined)	> 4 µM	> 4 µM	4 µM		
COc1cccc([C@@H]2C(C#N)=C(N)Oc3cc(OC)ccc32)c1	4 µM	0.5 µM	0.05 µM		
COc1cc(C2C(C#N)=C(N)Oc3cc4c(cc32)OCO4)cc2c1OCO2 (centres undefined)	0.2 µM	0.05 µM	0.005 µM	389 nM	
COc1ccc(C2C(C#N)=C(N)Oc3cc(O)ccc32)cc1OC (centres undefined)	> 4 µM	> 4 µM	> 4 µM		99.4%
COc1ccc2c(c1)OC(N)=C(C#N)C2c1cc(OC)c2c(c1OC)OCO2 (centres undefined)	4 µM	1 µM	0.1 µM		
